Experimental findings from ChEMBL document CHEMBL4627340, “Design, synthesis, and biological activity of new endomorphin analogs with multi-site modifications” (Bioorg Med Chem, 2020) are described below.

Data set [1] concerns the target Mu-type opioid receptor (Rattus norvegicus, UniProt P33535). Kind of data set: Displacement of [3H]-DAMGO from Wistar rat mu opioid receptor incubated for 1 hr by liquid scintillation counting method.
For data set [2], the target named is T1, Mu-type opioid receptor (Homo sapiens, UniProt P35372). Kind of data set: Agonist activity at mu opioid receptor (unknown origin) expressed in human HEK293 cells assessed as […] in cAMP accumulation using [3H]-cAMP as substrate measured after 30mins by liquid scintillation counting method relative to control. It is filed as functional, cell-based.
T1 sequence (P35372 whole entry): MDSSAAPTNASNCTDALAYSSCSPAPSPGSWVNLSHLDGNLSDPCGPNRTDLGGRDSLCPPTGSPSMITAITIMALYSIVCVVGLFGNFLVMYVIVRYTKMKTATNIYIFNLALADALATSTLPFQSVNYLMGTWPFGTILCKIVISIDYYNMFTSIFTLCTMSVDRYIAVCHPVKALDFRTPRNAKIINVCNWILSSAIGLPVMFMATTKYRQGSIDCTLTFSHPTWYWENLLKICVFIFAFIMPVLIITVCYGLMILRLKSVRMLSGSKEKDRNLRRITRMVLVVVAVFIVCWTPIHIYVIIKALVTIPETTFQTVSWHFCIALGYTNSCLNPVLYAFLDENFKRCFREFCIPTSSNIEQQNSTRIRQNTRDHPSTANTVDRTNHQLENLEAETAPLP
The target of data set [3] is Delta-type opioid receptor (Rattus norvegicus, UniProt P33533). Put plainly: Displacement of [3H]-DPDPE from Wistar rat delta opioid receptor incubated for 3 hrs by liquid scintillation counting method.
Sequence of Delta-type opioid receptor (P33533 whole entry): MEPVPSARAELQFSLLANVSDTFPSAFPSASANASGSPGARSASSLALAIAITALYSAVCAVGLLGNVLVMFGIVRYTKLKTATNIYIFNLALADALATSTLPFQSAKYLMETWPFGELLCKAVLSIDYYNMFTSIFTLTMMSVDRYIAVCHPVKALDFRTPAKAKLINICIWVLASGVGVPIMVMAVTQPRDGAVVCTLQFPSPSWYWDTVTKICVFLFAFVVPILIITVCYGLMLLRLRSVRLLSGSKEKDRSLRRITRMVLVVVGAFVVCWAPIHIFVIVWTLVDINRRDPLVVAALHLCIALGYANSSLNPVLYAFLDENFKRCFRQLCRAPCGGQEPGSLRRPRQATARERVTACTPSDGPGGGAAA
Data set [4] has as its target T1, Mu-type opioid receptor. Put plainly: Agonist activity at mu opioid receptor (unknown origin) expressed in human HEK293 cells assessed as […] in cAMP accumulation using [3H]-cAMP as substrate measured after 30mins by liquid scintillation counting method. Type of data set: functional, cell-based.
For data set [5], the system named is Mus musculus. Kind of data set: Antinociceptive activity in kunming mouse models assessed as maximum possible effect at 4 nmol, icv measured from 5 to 60 mins by warm water tail-flick assay relative to control. It is filed as functional.
For data set [6], the system named is Mus musculus. Kind of data set: Antinociceptive activity in kunming mouse models assessed as maximum possible effect at 0.4 nmol, icv measured from 5 to 60 mins by warm water tail-flick assay relative to control. It is filed as functional.
The nature of data set [7]: Half life in Kunming mouse serum at 10^-2 mol/L by RP-HPLC analysis. Type of data set: ADME, cell-free.
Data set [8] relates to Mus musculus. Put plainly: Antinociceptive activity in kunming mouse models of acetic-acid-induced writhing assessed as inhibition of writhing numbers at 0.04 nmol, icv pretreated for 5 mins followed by acetic-acid treatment and measured for 20 mins relative to control. Set-up: scale not given: the % may be the effect or the level left. It is filed as functional.
The test system of data set [9] is Mus musculus. Put plainly: Antinociceptive activity in kunming mouse models of formalin-induced hyperalgesia assessed as reduction in time spent on paw biting inflammatory phase at 4 nmol, icv measured during phase 1 at 0 to 5 mins relative to control. Type of data set: functional. Also on record: scale not given: the % may be the effect or the level left.
For data set [10], the system named is Mus musculus. Kind of data set: Antinociceptive activity in icv administered kunming mouse models of formalin-induced hyperalgesia assessed reduction in time spent on paw biting during inflammatory phase 2 at 15 to 30 mins. Type of data set: functional. Set-up: scale not given: the % may be the effect or the level left.
Data set [11] concerns Mus musculus. Put plainly: Antinociceptive activity in kunming mouse models of formalin-induced hyperalgesia assessed as reduction in pain response of paw licking inflammatory phase at 0.04 nmol, icv measured during phase 1 at 0 to 5 mins relative to control. Type of data set: functional. Also on record: scale not given: the % may be the effect or the level left.
The nature of data set [12]: Half life in Kunming mouse brain homogenate at 10^-2 mol/L by RP-HPLC analysis. Type of data set: ADME, tissue-based.
The subject of data set [13] is Mus musculus. Put plainly: Antinociceptive activity in kunming mouse models of formalin-induced hyperalgesia assessed as reduction in time spent on paw shaking inflammatory phase at 0.04 nmol, icv measured during phase 1 at 0 to 5 mins relative to control. Also on record: scale not given: the % may be the effect or the level left. Type of data set: functional.
The test system of data set [14] is Mus musculus. Put plainly: Antinociceptive activity in icv administered kunming mouse models of formalin-induced hyperalgesia assessed reduction in pain response of paw licking during inflammatory phase 2 at 15 to 30 mins. It is filed as functional, organism-based.
Data set [15] has as its system Mus musculus. Kind of data set: Antinociceptive activity in kunming mouse models of formalin-induced hyperalgesia assessed as reduction in pain response of paw licking inflammatory phase at 4 nmol, icv measured during phase 2 at 15 to 30 mins relative to control. Also on record: scale not given: the % may be the effect or the level left. It is filed as functional.

Data set [16] concerns Mus musculus. Kind of data set: Antinociceptive activity in kunming mouse models of formalin-induced hyperalgesia assessed as reduction in pain response of paw licking inflammatory phase at 4 nmol, icv measured during phase 1 at 0 to 5 mins relative to control. It is filed as functional. Set-up: scale not given: the % may be the effect or the level left.
The test system of data set [17] is Mus musculus. Kind of data set: Antinociceptive activity in kunming mouse models of formalin-induced hyperalgesia assessed as reduction in time spent on paw biting inflammatory phase at 4 nmol, icv measured during phase 2 at 15 to 30 mins relative to control. It is filed as functional. Also on record: scale not given: the % may be the effect or the level left.

Data set [18] has as its system Mus musculus. Kind of data set: Antinociceptive activity in kunming mouse models of formalin-induced hyperalgesia assessed as reduction in time spent on paw shaking inflammatory phase at 4 nmol, icv measured during phase 2 at 15 to 30 mins relative to control. It is filed as functional. Set-up: scale not given: the % may be the effect or the level left.
Data set [19] concerns Mus musculus. Kind of data set: Antinociceptive activity in kunming mouse models of formalin-induced hyperalgesia assessed as reduction in time spent on paw shaking inflammatory phase at 4 nmol, icv measured during phase 1 at 0 to 5 mins relative to control. Type of data set: functional. Also on record: scale not given: the % may be the effect or the level left.
The test system of data set [20] is Mus musculus. Kind of data set: Antinociceptive activity in icv administered kunming mouse models of formalin-induced hyperalgesia assessed reduction in time spent on paw shaking during inflammatory phase 2 at 15 to 30 mins. Type of data set: functional. Also on record: scale not given: the % may be the effect or the level left.
In data set [21] the test system is Mus musculus. Kind of data set: Antinociceptive activity in kunming mouse models of formalin-induced hyperalgesia assessed as reduction in time spent on paw biting inflammatory phase at 0.04 nmol, icv measured during phase 1 at 0 to 5 mins relative to control. Set-up: scale not given: the % may be the effect or the level left. It is filed as functional.
For data set [22], the system named is Mus musculus. Kind of data set: Antinociceptive activity in kunming mouse models assessed as effective dose after icv administration measured from 5 to 60 mins by warm water tail-flick assay. Type of data set: functional.
Data set [23] concerns Mus musculus. Kind of data set: Antinociceptive activity in kunming mouse models assessed as maximum possible effect at 3 mg/kg, iv measured after 5 to 60 mins by warm water tail-flick assay. Type of data set: functional.

Bounds are passed on as bounds.

Sequence of Mu-type opioid receptor (Rattus norvegicus, UniProt P33535) (P33535 whole entry): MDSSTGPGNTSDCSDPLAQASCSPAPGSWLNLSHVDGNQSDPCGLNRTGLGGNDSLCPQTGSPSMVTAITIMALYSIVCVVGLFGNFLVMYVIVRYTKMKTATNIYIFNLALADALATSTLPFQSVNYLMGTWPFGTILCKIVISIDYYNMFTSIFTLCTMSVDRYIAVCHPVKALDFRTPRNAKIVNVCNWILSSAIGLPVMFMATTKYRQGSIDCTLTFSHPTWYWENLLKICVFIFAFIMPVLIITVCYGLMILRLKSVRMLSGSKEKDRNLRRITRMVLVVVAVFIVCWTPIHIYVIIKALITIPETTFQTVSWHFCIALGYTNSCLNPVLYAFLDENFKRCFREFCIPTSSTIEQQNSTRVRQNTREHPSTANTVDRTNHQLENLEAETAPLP

On to `C=C(C(N)=O)[C@@H](NC(=O)[C@H](Cc1c[nH]c2ccccc12)NC(=O)[C@@H](CCC)NC(=O)[C@@H](N)Cc1ccc(O)cc1)c1ccco1`, for which the Ki at Mu-type opioid receptor [1] came to 34.4 nM; in [3] it was 2660 nM. The Emax at Mu-type opioid receptor [2] was found to be 67.6%. Further, the EC50 on Mu-type opioid receptor [4] amounted to 337 nM.

As to `NC(=O)[C@H](Cc1ccccc1)NC(=O)[C@H](Cc1c[nH]c2ccccc12)NC(=O)[C@@H]1CCCN1C(=O)[C@@H](N)Cc1ccc(O)cc1` [ENDOMORPHIN-1], in the data set with Mus musculus [5], the Activity stood at 100%. In the data set with Mus musculus [6], the MPE stood at 42.1%.

Take `C=C(C(N)=O)[C@@H](NC(=O)[C@H](Cc1c[nH]c2ccccc12)NC(=O)[C@@H](CCCNC(=N)N)NC(=O)[C@@H](N)Cc1ccc(O)cc1)c1ccco1`: the half-life in [7] and in [12] was > 5 h throughout. For the same molecule, the values for the Ki (on Mu-type opioid receptor [1]; in [3]) were 4.9 nM and 955 nM, respectively. Further, the Activity is 100% in the data set on Mus musculus [8]; 100% in the data set on Mus musculus [9]; 100% in the data set on Mus musculus [10]; 100% in the data set with Mus musculus [11]; 100% in the data set on Mus musculus [13]; “Dose-dependent effect” in the data set on Mus musculus [14]. Moreover, the Activity in the data set on Mus musculus [15], in the data set on Mus musculus [16], in the data set with Mus musculus [17], with Mus musculus [18], in the data set with Mus musculus [5] and with Mus musculus [19] was 100% throughout. Besides, the Activity in the data set with Mus musculus [20] and in the data set with Mus musculus [21] was 100% throughout. Also, the Emax at Mu-type opioid receptor [2] was determined as 62.7%. The EC50 on Mu-type opioid receptor [4] amounted to 221 nM. In the data set on Mus musculus [22], the ED50 amounted to 0.025 nmol. Moreover, the MPE in the data set on Mus musculus [6] stood at 94.7%.

Take `C=C(C(N)=O)[C@@H](NC(=O)[C@H](Cc1ccccc1)NC(=O)[C@@H](CN)NC(=O)[C@@H](N)Cc1ccc(O)cc1)c1ccco1`: the Ki is 53 nM at Mu-type opioid receptor [1] and > 10000 nM in data set [3]. For the same molecule, the Emax on Mu-type opioid receptor [2] is 62.3%. Also, the EC50 on Mu-type opioid receptor [4] stood at 1500 nM.

For the molecule `C=C(C(N)=O)[C@@H](NC(=O)[C@H](Cc1c[nH]c2ccccc12)NC(=O)[C@@H](CNC(C)=O)NC(=O)[C@@H](N)Cc1ccc(O)cc1)c1ccco1`, the figures for the Ki (at Mu-type opioid receptor [1]; in data set [3]) were 4.54 nM and > 10000 nM, respectively. In addition, the Emax at Mu-type opioid receptor [2] is 73.2%. Further, on Mu-type opioid receptor [4], the EC50 was 272 nM.

As for `C=C(C(N)=O)[C@@H](NC(=O)[C@H](Cc1ccccc1)NC(=O)[C@@H](CCCNC(=N)N)NC(=O)[C@@H](N)Cc1ccc(O)cc1)c1ccco1`, the half-life in data set [7] and in [12] was > 5 h each time. Also, the Ki stood at 19.2 nM on Mu-type opioid receptor [1] and 922 nM in data set [3]. In addition, at Mu-type opioid receptor [2], the Emax turned out to be 74.2%. In addition, the EC50 at Mu-type opioid receptor [4] came out at 370 nM. The Activity with Mus musculus [5] was 100%. Besides, in the data set with Mus musculus [22], the ED50 stood at 0.054 nmol. For the same molecule, the MPE in the data set with Mus musculus [6] worked out at 86.9%.

Consider `C=C(C(N)=O)[C@@H](NC(=O)[C@H](Cc1c[nH]c2ccccc12)NC(=O)[C@@H](CCN)NC(=O)[C@@H](N)Cc1ccc(O)cc1)c1ccco1`, for which the values for the Ki (on Mu-type opioid receptor [1]; in [3]) were 32.4 nM and > 10000 nM, respectively. For the same molecule, the Emax at Mu-type opioid receptor [2] was found to be 75.5%. The EC50 at Mu-type opioid receptor [4] was 161 nM.

As to `C=C(C(N)=O)[C@@H](NC(=O)[C@H](Cc1c[nH]c2ccccc12)NC(=O)[C@@H](CCCCNC(C)=O)NC(=O)[C@@H](N)Cc1ccc(O)cc1)c1ccco1`, the Ki turned out to be 9.21 nM at Mu-type opioid receptor [1] and 3580 nM in [3]. Moreover, the Emax at Mu-type opioid receptor [2] turned out to be 37.5%. For the same molecule, at Mu-type opioid receptor [4], the EC50 was 934 nM.

With `C=C(C(N)=O)[C@@H](NC(=O)[C@H](Cc1c[nH]c2ccccc12)NC(=O)[C@@H](CCCCNC(=N)N)NC(=O)[C@@H](N)Cc1ccc(O)cc1)c1ccco1`, the results for the Ki (at Mu-type opioid receptor [1]; in data set [3]) were 405 nM and > 10000 nM, respectively. Further, the Emax on Mu-type opioid receptor [2] was found to be 76.5%. In addition, the EC50 on Mu-type opioid receptor [4] stood at 341 nM.

For the molecule `C=C(C(N)=O)[C@@H](NC(=O)[C@H](Cc1c[nH]c2ccccc12)NC(=O)[C@@H](CCCCN)NC(=O)[C@@H](N)Cc1ccc(O)cc1)c1ccco1`, the values for the Ki (on Mu-type opioid receptor [1]; in [3]) were 172 nM and > 10000 nM, respectively. The Emax at Mu-type opioid receptor [2] was 65.8%. For the same molecule, at Mu-type opioid receptor [4], the EC50 is 1130 nM.

Take `NC(=O)[C@H](Cc1ccccc1)NC(=O)[C@H](Cc1ccccc1)NC(=O)[C@@H]1CCCN1C(=O)[C@@H](N)Cc1ccc(O)cc1` [ENDOMORPHIN 2]: the figures for the half-life in data set [7] and in data set [12] were 0.212 h and 0.207 h, respectively. Further, the Emax on Mu-type opioid receptor [2] worked out at 66.5%. Also, the Activity in the data set with Mus musculus [5] amounted to 100%. Further, the ED50 with Mus musculus [22] is 0.96 nmol.

As to `C=C(C(N)=O)[C@@H](NC(=O)[C@H](Cc1c[nH]c2ccccc12)NC(=O)[C@@H](CN)NC(=O)[C@@H](N)Cc1ccc(O)cc1)c1ccco1`, the Ki is 5.47 nM at Mu-type opioid receptor [1] and > 10000 nM in data set [3]. On Mu-type opioid receptor [2], the Emax was determined as 81.5%. The EC50 on Mu-type opioid receptor [4] amounted to 192 nM.

For the molecule `C=C(C(N)=O)[C@@H](NC(=O)[C@H](Cc1ccccc1)NC(=O)[C@@H](CNC(C)=O)NC(=O)[C@@H](N)Cc1ccc(O)cc1)c1ccco1`, the Ki on Mu-type opioid receptor [1] was 22.4 nM; in data set [3], > 10000 nM. The Emax on Mu-type opioid receptor [2] was found to be 78.2%. Also, the EC50 on Mu-type opioid receptor [4] turned out to be 1360 nM.

Take `C=C(C(N)=O)[C@@H](NC(=O)[C@H](Cc1c[nH]c2ccccc12)NC(=O)[C@@H](CCCN)NC(=O)[C@@H](N)Cc1ccc(O)cc1)c1ccco1`: the Ki on Mu-type opioid receptor [1] was 437 nM; in data set [3], 320 nM. Moreover, the Emax at Mu-type opioid receptor [2] was found to be 65.6%. The EC50 on Mu-type opioid receptor [4] came to 89.3 nM.

In the case of `CN1CC[C@]23c4c5ccc(O)c4O[C@H]2[C@@H](O)C=C[C@H]3[C@H]1C5` [MORPHINE], the MPE in the data set on Mus musculus [23] is recorded as 53.6%.
